The nature of data set [1]: Hygroscopicity evaluation at about 75% RH (NaCl saturated aqueous solution), visual powder property and polarized light microscopy. The data set is classed as physicochemical. The note with it: for powder property after 1 day / powder property after 7 days / powder property and crystallinity after 30 days: ~75% RH, room temperature (~22° C.); for hygroscopicity compared to NR—Cl crystalline forms: compared to NR—Cl-Form A and NR—Cl-Form B; for powder state for more than one month: environment of 75% RH. The source says: In addition to the thermal stability, the hygroscopicity, the tendency of a solid substance to absorb moisture from the surrounding atmosphere, is another important physicochemical property that needs to be considered during pharmaceutical development, because, like the heat, the moisture may also damage the drug product at a specific storage condition during the period of the drug shelf life. One of the key disadvantages of the nicotinamide riboside chloride products in the market is its poor hygroscopicity. As reported previously, all the three crystalline forms of the nicotinamide riboside chloride deliquesce at the relative humidity (RH) of 70%-80%. As a result, the nicotinamide riboside chloride requires to store in a dry place to avoid absorbing moisture from the air. […] The hygroscopicity assessment can be achieved by placing compounds in a specified relative humidity environment, e.g., ˜75% RH environment established with the sodium chloride saturated aqueous solution.
A Kerr SureTight™ container of 8 oz Clear Glass Wide Mouth Mason Jars with Silver Vacuum Seal Lid was used to secure the closure. An 8 ml opened vial containing sodium chloride (NaCl) saturated aqueous solution (about 75.5% RH at 20° C. and about 75.3% at 25° C. from www.engineeringtoolbox.com/salt-humidity-d_1887.html) was placed in the SureTight container. The 4 ml of opened vials containing about 5 mg of [NR—Cl]2[RSV] cocrystals or NR—Cl crystalline forms were also placed in the same container with the vial of the NaCl saturated aqueous solution. The container was sealed with the seal lid and placed in a room temperature condition (˜22° C.). The powder property was visually observed directly or during shaking the vial. Crystallinity was assessed under a polarized light microscope.

For data set [2] the following is noted: NR—Cl crystalline forms, previously identified; cited from earlier work.
Data set [3] in a line: Chemical decomposition in alcohol suspension. The data set is classed as physicochemical. The source says:
Reaction crystallization temperatures and times depend upon targeted crystalline form of the cocrystal of a salt that is to be crystallized, the concentration of the salt and coformer in solution, and the solvent system. It should be noted that the elevated temperature or the long reaction time should be avoided to reduce the possibility of chemical decomposition for the […]. […] Even in room temperature, the nicotinamide riboside chloride starts to decompose after stirring in the alcohol suspension for more than 3 days. The preferred reaction time is less than 24 hours with reaction temperature at around room temperature.

The format of data set [4] is physicochemical. The source says:
Various solvents are selected based on solubility of starting materials and crystallization methods disclosed herein. […] These differences in solubilities also impact the ratio of the two starting materials. In the disclosed methods to prepare […], a ratio between the nicotinamide riboside chloride salt and resveratrol cofomer from about 2:1 to about 2:2 to prepare [NR—Cl]2[RSV] with a NR—Cl/RSV molar ratio of 2:1.

A short description of data set [5]: Thermal stability by differential scanning calorimetry (DSC). The data set is classed as physicochemical. The note with it: for heat of fusion: DSC; for melting/decomposition endotherm peak: heating rate 10° C./minute. From the text: Thermal stability is the stability of a molecule at elevated temperatures, and a molecule with more thermal stability has more resistance to decomposition at elevated temperatures. Thermal stability of a compound is one of the most important pharmaceutical properties that requires to be considered during developing a pharmaceutical or nutraceutical product. […] Differential Scanning calorimetry (DSC) is an analysis technique by measuring the heat change associated with the molecule's thermal events when heated at a constant rate. The temperature and its enthalpy change (usually the heat of fusion) at a specific thermal event recorded from DSC technique could be used to evaluate the thermal stability of an organic molecule directly. […] It is desirable to identify a new crystalline form with a higher melting/decomposition temperature and/or a larger heat of fusion to improve the thermal stability of the nicotinamide riboside drug substance.
DSC analysis was performed on samples prepared according to standard methods using a Q SERIES™ Q2500 DSC calorimeter available from TA INSTRUMENTS® (New Castle, Delaware). A sample (approximately 2 mg) was weighed into an aluminum sample pan and transferred to the DSC. The instrument was purged with nitrogen at 50 mL/min and data collected between 22° C. and 300° C., using a dynamic heating rate of 10° C./minute. Thermal data was analyzed using standard software, e.g., TRIOS from TA INSTRUMENTS®.

Entries after “also recorded” stand apart in the source; their conditions may differ. Like-named read-outs stand apart in the source and are kept apart here.

In the case of `NC(=O)c1ccc[n+]([C@@H]2O[C@H](CO)[C@@H](O)[C@H]2O)c1.[Cl-]` [NR—Cl-Form A, nicotinamide riboside chloride], in data set [1], the “powder property after 1 day” value is “deliquesced; also recorded: became sticky and could not flow freely”; the “powder property after 7 days” value is recorded as “deliquesced”; the “powder property and crystallinity after 30 days” value is on record as “glass-like liquids (amorphous materials)”. Also, in data set [2], the heat of fusion is 58 J/g and the melting/decomposing temperature is 119 °C.
As for `NC(=O)c1ccc[n+]([C@@H]2O[C@H](CO)[C@@H](O)[C@H]2O)c1.[Cl-]` [NR—Cl-Form B, nicotinamide riboside chloride], the “powder property and crystallinity after 30 days” value in data set [1] was “glass-like liquids (amorphous materials)”. In data set [2], the heat of fusion is reported as 69 J/g and the melting/decomposing temperature was 123 °C.
As for `NC(=O)c1ccc[n+]([C@@H]2O[C@H](CO)[C@@H](O)[C@H]2O)c1.[Cl-]` [nicotinamide riboside chloride], the “time within which decomposition occurs in alcohol suspension” value in data set [3] (elevated temperature above 50° C.) was not above 1 h. In data set [3] (room temperature), the “stirring time after which decomposition starts in alcohol suspension” value was “more than 3 days”. In addition, in data set [4], the “solubility in EtOH” value is “poorly soluble”, the “solubility in IPA” value was “poorly soluble”, the “solubility in MeOH” value was “soluble” and the solubility in water result is on record as “soluble”.
As for `Oc1ccc(/C=C/c2cc(O)cc(O)c2)cc1` [resveratrol, 3,5,4′-trihydroxy-trans-stilbene], in data set [4], the “solubility in EtOH” value is “soluble”, the “solubility in IPA” value was “soluble”, the “solubility in MeOH” value is “soluble” and the solubility in water result is reported as “poorly soluble”.
As for “resveratrol cocrystal of nicotinamide riboside chloride [[NR—Cl]2[RSV]-Form A]”, in data set [1], the “hygroscopicity compared to NR—Cl crystalline forms” value was “better hygroscopicity”, the “powder state for more than one month” value is on record as “retain as flowable crystalline powders”, the “powder property after 1 day” value is given as “flowable powders” and the “powder property after 7 days” value was “flowable powders”. In addition, the “powder property and crystallinity after 30 days” value in data set [1] is on record as “flowable crystalline powders”. For the same molecule, in data set [5], the heat of fusion stood at 100 J/g and the melting/decomposition endotherm peak result was “about 128 °C”. Further, the “thermal stability compared to NR—Cl crystalline forms” value in data set [5] (from melting/decomposition temperature and heat of fusion) is “better thermal stability”.
Take “resveratrol cocrystal of nicotinamide riboside chloride [[NR—Cl]2[RSV]-Form B]”: in data set [1], the “hygroscopicity compared to NR—Cl crystalline forms” value is listed as “better hygroscopicity”, the “powder state for more than one month” value was “retain as flowable crystalline powders”, the “powder property after 1 day” value is recorded as “flowable powders” and the “powder property after 7 days” value is recorded as “flowable powders”. Besides, the “powder property and crystallinity after 30 days” value in data set [1] is “flowable crystalline powders”. Moreover, in data set [5], the heat of fusion was found to be 97 J/g and the melting/decomposition endotherm peak entry was “about 127 °C”.

Values taken from patent US20250026777A1, “COCRYSTALS OF NICOTINAMIDE RIBOSIDE SALTS, CRYSTALLINE FORMS, METHODS OF PREPARATION, AND APPLICATIONS THEREOF” (Beiture LLP, priority 2023, published 2025).
